# Patent US9611264B1, “N-[2-(3-amino-2,5-dimethyl-1,1-dioxido-5,6-dihydro-2H-1,2,4-thiadiazin-5-yl)-1,3-thiazol-4-yl] amides” (Pfizer Inc., priority 2015, dated 2017)
# Where a name gives a salt, the structure may show the parent alone.
# Target: T1, BACE1 enzyme (Homo sapiens, UniProt P56817)
# T1 construct: transfected with a soluble BACE construct (BACE1deltaTM96His); His (C); made in house; host or cells: CHO-K1 cells (secreted into conditioned media)
# Assay: BACE1 Cell-Free Assay (fluorescence polarization, cleavage of synthetic APP substrate)
# Assay type: biochemical
# Settings: geometric mean of 2-4 determinations unless otherwise indicated (b: ≧5 determinations; c: single determination); 0.1 nM BACE1, 150 nM peptide substrate, pH 4.5, 3 hours at 37° C.
# From the text: Beta-secretase (BACE) is one of the enzymes involved in the generation of the amyloid beta peptide found in the amyloid plaques of Alzheimer's disease patients. This assay measures the inhibition of the beta-secretase enzyme as it cleaves a non-native peptide.
# A synthetic APP substrate that can be cleaved by beta-secretase having N-terminal biotin and made fluorescent by the covalent attachment of Oregon Green at the Cys residue is used to assay beta-secretase activity in the presence or absence of the inhibitory compounds. The substrate is Biotin-GLTNIKTEEISEISY^EVEFR-C[Oregon Green]KK-OH. The BACE1 enzyme is affinity purified material from conditioned media of CHO-K1 cells that have been transfected with a soluble BACE construct (BACE1deltaTM96His). Compounds are incubated in a ½ log dose response curve from a top concentration of 100 μM with BACE1 enzyme and the biotinylated fluorescent peptide in 384-well black plates (Thermo Scientific #4318). BACE1 is at a final concentration of 0.1 nM with a final concentration of peptide substrate of 150 nM in a reaction volume of 30 μL assay buffer [100 mM sodium acetate, pH 4.5 (brought to pH with acetic acid), and 0.001% Tween-20]. Plates are covered and incubated for 3 hours at 37° C. The reaction is stopped with the addition of 30 μL of 1.5 μM Streptavidin (Pierce, #21125). After a 10 minute incubation at room temperature, plates are read on a PerkinElmer EnVision for fluorescence polarization (Ex485 nm/Em530 nm). The activity of the beta-secretase enzyme is detected by changes in the fluorescence polarization that occur when the substrate is cleaved by the enzyme.
# T1 sequence (P56817 46-457 limits assumed): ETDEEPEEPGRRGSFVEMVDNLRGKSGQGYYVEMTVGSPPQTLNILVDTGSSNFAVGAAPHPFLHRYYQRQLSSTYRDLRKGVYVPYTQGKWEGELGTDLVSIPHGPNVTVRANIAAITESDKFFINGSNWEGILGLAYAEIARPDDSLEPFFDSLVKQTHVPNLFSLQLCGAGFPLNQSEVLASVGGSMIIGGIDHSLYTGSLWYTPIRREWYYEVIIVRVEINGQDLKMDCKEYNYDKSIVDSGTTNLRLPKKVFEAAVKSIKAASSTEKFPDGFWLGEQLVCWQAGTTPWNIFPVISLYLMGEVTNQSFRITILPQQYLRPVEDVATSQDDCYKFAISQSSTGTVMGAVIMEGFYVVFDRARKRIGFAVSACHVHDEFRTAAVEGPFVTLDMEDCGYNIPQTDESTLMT
row,IC50 [nM],Compound
1,18000,"C[C@H]1[C@](C)(c2nc(NC(=O)c3ccc(OC(F)F)cn3)cs2)N=C(N)N(C)S1(=O)=O (single isomer, unassigned) [Example 10]"
2,3920,"CC[C@@H]1[C@](C)(c2nc(NC(=O)c3ccc(OC(F)F)cn3)cs2)N=C(N)N(C)S1(=O)=O [Example 16, N-{2-[(5R,6R)-3-amino-6-ethyl-2,5-dimethyl-1,1-dioxido-5,6-dihydro-2H-1,2,4-thiadiazin-5-yl]-1,3-thiazol-4-yl}-5-(difluoromethoxy)pyridine-2-carboxamide]"
3,23,"CN1C(N)=N[C@](C)(c2nc(NC(=O)c3ncc(OC(F)F)cc3Cl)cs2)CS1(=O)=O [Example 25, N-{2-[(5S)-3-amino-2,5-dimethyl-1,1-dioxido-5,6-dihydro-2H-1,2,4-thiadiazin-5-yl]-1,3-thiazol-4-yl}-3-chloro-5-(difluoromethoxy)pyridine-2-carboxamide]"
4,78,"CN1C(N)=N[C@](C)(c2nc(NC(=O)c3ccc(OC(F)F)cn3)cs2)C(C)(C)S1(=O)=O (single isomer, unassigned) [Example 8]"
5,11,"CN1C(N)=N[C@](C)(c2nc(NC(=O)c3coc(CF)n3)cs2)CS1(=O)=O [Example 21, N-{2-[(5S)-3-amino-2,5-dimethyl-1,1-dioxido-5,6-dihydro-2H-1,2,4-thiadiazin-5-yl]-1,3-thiazol-4-yl}-2-(fluoromethyl)-1,3-oxazole-4-carboxamide]"
6,60,"CN1C(N)=N[C@](C)(c2nc(NC(=O)c3ccc(OC(F)F)cn3)cs2)CS1(=O)=O [Example 1, N-{2-[(5S)-3-amino-2,5-dimethyl-1,1-dioxido-5,6-dihydro-2H-1,2,4-thiadiazin-5-yl]-1,3-thiazol-4-yl}-5-(difluoromethoxy)pyridine-2-carboxamide]"
7,42,"CN1C(N)=N[C@](C)(c2nc(NC(=O)c3ccc(Cl)cn3)cs2)CS1(=O)=O [Example 20, N-{2-[(5S)-3-amino-2,5-dimethyl-1,1-dioxido-5,6-dihydro-2H-1,2,4-thiadiazin-5-yl]-1,3-thiazol-4-yl}-5-chloropyridine-2-carboxamide]"
8,172,"CN1C(N)=N[C@](C)(c2nc(NC(=O)c3cnc(C(F)F)cn3)cs2)CS1(=O)=O [Example 19, N-{2-[(5S)-3-amino-2,5-dimethyl-1,1-dioxido-5,6-dihydro-2H-1,2,4-thiadiazin-5-yl]-1,3-thiazol-4-yl}-5-(difluoromethyl)pyrazine-2-carboxamide]"
9,136,"C[C@@H]1[C@@](C)(c2nc(NC(=O)c3ccc(OC(F)F)cn3)cs2)N=C(N)N(C)S1(=O)=O (single isomer, unassigned) [Example 11]"
10,246,"CN1C(N)=N[C@](C)(c2nc(NC(=O)c3cnc(CF)cn3)cs2)CS1(=O)=O [Example 18, N-{2-[(5S)-3-amino-2,5-dimethyl-1,1-dioxido-5,6-dihydro-2H-1,2,4-thiadiazin-5-yl]-1,3-thiazol-4-yl}-5-(fluoromethyl)pyrazine-2-carboxamide]"
11,371,"CC[C@@H]1[C@@](C)(c2nc(NC(=O)c3ccc(OC(F)F)cn3)cs2)N=C(N)N(C)S1(=O)=O [Example 15, N-{2-[(5S,6R)-3-amino-6-ethyl-2,5-dimethyl-1,1-dioxido-5,6-dihydro-2H-1,2,4-thiadiazin-5-yl]-1,3-thiazol-4-yl}-5-(difluoromethoxy)pyridine-2-carboxamide]"
12,185,"CN1C(N)=NC(C)(c2nc(NC(=O)c3ccc(OC(F)F)cn3)cs2)C(C)(C)S1(=O)=O (stereo not drawn) [Example 6, N-[2-(3-amino-2,5,6,6-tetramethyl-1,1-dioxido-5,6-dihydro-2H-1,2,4-thiadiazin-5-yl)-1,3-thiazol-4-yl]-5-(difluoromethoxy)pyridine-2-carboxamide]"
13,33800,"C[C@@H]1[C@](C)(c2nc(NC(=O)c3ccc(OC(F)F)cn3)cs2)N=C(N)N(C)S1(=O)=O (single isomer, unassigned) [Example 13]"
14,88,"C[C@H]1[C@@](C)(c2nc(NC(=O)c3ccc(OC(F)F)cn3)cs2)N=C(N)N(C)S1(=O)=O (single isomer, unassigned) [Example 12]"
15,200,"CC[C@H]1[C@@](C)(c2nc(NC(=O)c3ccc(OC(F)F)cn3)cs2)N=C(N)N(C)S1(=O)=O [Example 17, N-{2-[(5S,6S)-3-amino-6-ethyl-2,5-dimethyl-1,1-dioxido-5,6-dihydro-2H-1,2,4-thiadiazin-5-yl]-1,3-thiazol-4-yl}-5-(difluoromethoxy)pyridine-2-carboxamide]"
16,134,"CN1C(N)=N[C@](C)(c2nc(NC(=O)c3cnc(OCC(C)(F)F)cn3)cs2)CS1(=O)=O [Example 22, N-{2-[(5S)-3-amino-2,5-dimethyl-1,1-dioxido-5,6-dihydro-2H-1,2,4-thiadiazin-5-yl]-1,3-thiazol-4-yl}-5-(2,2-difluoropropoxy)pyrazine-2-carboxamide]"
17,29,"Cc1cc(OC(F)F)cnc1C(=O)Nc1csc([C@]2(C)CS(=O)(=O)N(C)C(N)=N2)n1 [Example 9, N-{2-[(5S)-3-amino-2,5-dimethyl-1,1-dioxido-5,6-dihydro-2H-1,2,4-thiadiazin-5-yl]-1,3-thiazol-4-yl}-5-(difluoromethoxy)-3-methylpyridine-2-carboxamide, methanesulfonic acid salt]"
18,13,"CC#CCOc1cnc(C(=O)Nc2csc([C@]3(C)CS(=O)(=O)N(C)C(N)=N3)n2)cn1 [Example 23, N-{2-[(5S)-3-amino-2,5-dimethyl-1,1-dioxido-5,6-dihydro-2H-1,2,4-thiadiazin-5-yl]-1,3-thiazol-4-yl}-5-(but-2-yn-1-yloxy)pyrazine-2-carboxamide]"
19,4400,"CN1C(N)=N[C@@](C)(c2nc(NC(=O)c3ccc(OC(F)F)cn3)cs2)C(C)(C)S1(=O)=O (single isomer, unassigned) [Example 7]"
20,45,"CN1C(N)=N[C@](C)(c2nc(NC(=O)c3ccc(C#N)cn3)cs2)CS1(=O)=O [Example 26, N-{2-[(5S)-3-amino-2,5-dimethyl-1,1-dioxido-5,6-dihydro-2H-1,2,4-thiadiazin-5-yl]-1,3-thiazol-4-yl}-5-cyanopyridine-2-carboxamide]"
21,14200,"CC[C@H]1[C@](C)(c2nc(NC(=O)c3ccc(OC(F)F)cn3)cs2)N=C(N)N(C)S1(=O)=O [Example 14, N-{2-[(5R,6S)-3-amino-6-ethyl-2,5-dimethyl-1,1-dioxido-5,6-dihydro-2H-1,2,4-thiadiazin-5-yl]-1,3-thiazol-4-yl}-5-(difluoromethoxy)pyridine-2-carboxamide]"
22,31200,"CN1C(N)=N[C@@](C)(c2nc(NC(=O)c3ccc(OC(F)F)cn3)cs2)[C@H](C2CC2)S1(=O)=O (single isomer, unassigned) [Example 3]"
23,19,"CN1C(N)=N[C@](C)(c2nc(NC(=O)c3ccn(C(F)F)n3)cs2)CS1(=O)=O [Example 2, N-{2-[(5S)-3-amino-2,5-dimethyl-1,1-dioxido-5,6-dihydro-2H-1,2,4-thiadiazin-5-yl]-1,3-thiazol-4-yl}-1-(difluoromethyl)-1H-pyrazole-3-carboxamide]"
24,13,"CC#CCOc1ccc(C(=O)Nc2csc([C@]3(C)CS(=O)(=O)N(C)C(N)=N3)n2)nc1 [Example 24, N-{2-[(5S)-3-amino-2,5-dimethyl-1,1-dioxido-5,6-dihydro-2H-1,2,4-thiadiazin-5-yl]-1,3-thiazol-4-yl}-5-(but-2-yn-1-yloxy)pyridine-2-carboxamide]"
25,9,"Cc1cc(C#N)cnc1C(=O)Nc1csc([C@]2(C)CS(=O)(=O)N(C)C(N)=N2)n1 [Example 27, N-{2-[(5S)-3-amino-2,5-dimethyl-1,1-dioxido-5,6-dihydro-2H-1,2,4-thiadiazin-5-yl]-1,3-thiazol-4-yl}-5-cyano-3-methylpyridine-2-carboxamide]"
26,103,"CN1C(N)=N[C@](C)(c2nc(NC(=O)c3ccc(OC(F)F)cn3)cs2)[C@@H](C2CC2)S1(=O)=O (single isomer, unassigned) [Example 4]"
27,51,"CN1C(N)=N[C@](C)(c2nc(NC(=O)c3ccc(OC(F)F)cn3)cs2)[C@H](C2CC2)S1(=O)=O (single isomer, unassigned) [Example 5]"
